Source: patent publication US20180201594A1, “Compound pac-1 or salt thereof and pharmaceutical composition comprising same” (priority 2015, published 2018)
≈ marks a conversion by molar mass, not a printed value.

Experiments:
[1] = system: Murine Lewis lung carcinoma cell line; experiment: Spontaneous metastatic cancer in mice (Lewis lung carcinoma); details: 100 mg/kg/d, intragastric administration
Procedure: The tumors growed to 1000 mm^3 and then were randomly divided into groups for adminstration, the groups were treated after three weeks. A total of 4 groups including ZYS-1 high, medium and low (100, 50, 25 mg/kg/d, intragastric administration) and positive control (gefitinib 100 mg/kg/d, intragastric administration) groups were set. The efficacy of ZYS-1 was evaluated in terms of general survival status (food intake, activity, hair etc.), tumor inhibition rate and metastasis inhibition rate.
The curve of tumor growth was plotted. On the next day after completing the treatment cycle, the animal was weighed. After collecting the blood, the animal was sacrificed. The tumor tissue was stripped, weighed, and the tumor inhibition rate was calculated. Store at −80 ? .
Metastasis rate=Number of mice with metastasis/Total number of mice×100%
Inhibition rate of metastasis loci=(average number of metastasis loci in the control group−average number of metastasis loci in the experimental group)/average number of metastasis loci in the control group×100%

ICR mice = experiment: in vivo
From the text: (§1) Experimental materials: PAC-1 needle crystal (prepared according to the method of Quinn P. Peterson et al., J. Med. Chem. 2009, 52, 5721-5731), batch number 20090818.
(§2) Experimental animals and feeding conditions: ICR mice, half male and half female. Body weight 20±2 g, provided by Beijing Weitonglihua Experimental Animal Technology Co., Ltd., SPF grade feeding, certificate: SCXK (Beijing) 2006-0009. Particulate feed for mouse breeding was provided by Beijing Ke'ao Xieli Feed Co., Ltd. Animals were housed in barrier-level (Grade 2) animal lab in Beijing Anzhen Hospital, fluorescent lighting, 12 h light and dark cycle, room ? temperature 22˜24 ? , humidity 40-47%, air supply 10-12 times/h, Laboratory license number: SYXK (Beijing) 2005-0028. Mice were housed in clear plastic boxes with 5 per cage separated by gender.
(§3) The method of preparing the test drug: PAC-1 needle crystal was placed in a mortar to be finely ground. A propriate amount of PAC-1 crystal was accurately weighed, which was formulated with 0.5% CMC-Na to reach the desired concentration.
(§4) Animals grouping: After fasting (except for water) for 11 h, according to body weight, animals were randomly divided into groups of 10 with 5 males and 5 females. There were 8 groups in total. […]. One-time intragastric administration was used in the experiment. The negative control group was orally administered an equal volume of 0.5% CMC-Na. The animals started feeding at 3 hours after administration.
(§5) Observed indicators: immediately after administration, the observation of the responses of the animals to drugs (such as: general performance, respiration, activity, with or without convulsions, righting reflex, pain reflex, response to external stimuli and other indicators) was started. When observing and recording the symptom of toxic reaction after animal administration, the time and duration of toxicity, recovery time, and the time of animal death, the animal was immediately dissected grossly, visually observing the main organs (heart, liver, spleen, lung and kidney, stomach) to see if there is congestion, increased volume, hardens, discoloration. For survival animals, they were observed and recorded day by day whether there was delayed death and delayed toxicity reaction in 7 days. The animals were weighed and fed once every 2 days. After finishing observation for 7 days, the survival animals were dissected grossly and the situations of their main organs were observed. […]

in vivo = details: both sexes, ICR, mouse, in vivo, po
From the text: as §1, §2, §3, §4, §5

[2] = Solubility comparison of ZYS-1 and PAC-1 needle crystal (HPLC); type: physicochemical; details: organic solvent or mixture, thermodynamic from solid, room temperature
Procedure: The appropriate amounts of ZYS-1 and PAC-1 needle crystal were dissolved into the appropriate amount of methanol, absolute ethanol, 95% ethanol, acetonitrile, ethyl ether, ethyl acetate, propanol, acetone, respectively, and sonicated for 1 hour, then left at room temperature for 24 hours to obtain the oversaturated solution. After centrifugation at 4000 r/min for 5 min, the supernatant was diluted appropriately and filtered through a 0.45 μm needle filter. The concentration was determined by HPLC and the solubility was calculated.

[3] = In vivo pharmacokinetic comparison in rats; details: male Wistar rats, 60 mg/Kg, n = 6
Procedure: Twelve male Wistar rats were randomly divided into ZYS-1 group and PAC-1 group. These rats were fasted for 12 hours before administration, and fed water freely. After ZYS-1 and PAC-1 needle crystal were given at the dose of 60 mg/Kg, 0.5 mL orbital blood was collected at 0, 5, 20, 30, 45, 60, 120, 180, 240, 360, 480, 720 mins, centrifuged at 5000 r/min for 5 min. 200 μL plasma was taken. The plasma was added 3 mL acetone and vortexed for 1 min. After centrifuging at 15000 r/min for 5 min, the supernatant was collected and dried under nitrogen at 37° C., to which 200 μL acetonitrile was added to be reconstituted. After sonication for 10 min, the mixture was vortexed for 1 min, and filtered through 0.45 microporous filter membrane. The filtrate was tested by HPLC, and the plasma concentration at each time point was calculated.

[4] = Solubility comparison of ZYS-1 and PAC-1 needle crystal (HPLC); type: physicochemical; details: room temperature
[5] = both, ICR, mouse, in vivo, 7 days
[6] = one-time intragastric administration to mice

## COc1cc2ncnc(Nc3ccc(F)c(Cl)c3)c2cc1OCCCN1CCOCC1 [Gefitinib, gefitinib, reference compound]
[1]
  Body weight of the animals, End: 30.5 ± 5.0 g
  Metastasis rate: 100%
  Number of lung (metastasis loci): 6.9 ± 3.7
  Tumor weight: 2.1036 ± 0.3382 g

## C=CCc1cccc(/C=N/NC(=O)CN2CCN(Cc3ccccc3)CC2)c1O [PAC-1 needle crystal, 1-Piperazineacetic acid, 4-(phenylmethyl)-2-[[2-hydroxy-3-(2-propen-1-yl)phenyl]methylene], reference compound]
ICR mice; [5]
  0% mortality dose: 240.1 mg/kg
  100% mortality dose: greater than 1000 mg/kg
  dose without apparent toxicity: 117.7 mg/kg
ICR mice; [6]
  time for most survival animals to return to normal after dosing: ≤ 3 h
  time of death after administration (mainly): 30˜60 min
In vivo; LD50 95% confidence limit
  LD50 at 7 days: 451 to 675 mg/kg
In vivo; acute toxicity (LD50) dose
  LD50 at 7 days: 552 mg/kg
[2]; 95% ethanol
  solubility at 24 h: 16.4 mg/mL (≈ 41.9 mM)
[2]; absolute ethanol
  solubility at 24 h: 18.9 mg/mL (≈ 48.3 mM)
[2]; acetone
  solubility at 24 h: 81.8 mg/mL (≈ 208 mM)
[2]; acetonitrile
  solubility at 24 h: 20.7 mg/mL (≈ 52.8 mM)
[2]; diethyl ether
  solubility at 24 h: 3.51 mg/mL (≈ 8.94 mM)
[2]; ethyl acetate
  solubility at 24 h: 33.4 mg/mL (≈ 85 mM)
[2]; methanol
  solubility at 24 h: 28.2 mg/mL (≈ 71.8 mM)
[2]; propanol
  solubility at 24 h: 16 mg/mL (≈ 40.9 mM)
[3]
  AUC(0-tn): 320.2186357 ± 127.0767162 µg·h/mL
  AUC(0-∞): 578.8993071 ± 466.830172 µg·h/mL
  Cmax: 2078.7579 ± 950.561 µg/L
  MRT(0-tn): 10.59652 ± 7.510054 days
  MRT(0-∞): 62.571621 ± 75.350888 days
  Tmax: 52.5000 ± 12.5499 h
  T½ka: 15.4260 ± 11.8916 h
  T½α: 134.7563 ± 63.3796 h
  V/F: 0.0318 ± 0.0177 L
  ka: 0.0720 ± 0.0468 h⁻¹
  ke: 0.0062 ± 0.0029 h⁻¹
  lagtime: 8.8081 ± 4.8496 h
[4]; Water
  Solubility: 1.5 µg/mL (≈ 0.00382 mM)
[4]; chloroform, organic solvent or mixture, thermodynamic from solid
  solubility at 24 h: 290 mg/mL (≈ 740 mM)
